Laboratory results: ChEMBL document CHEMBL1201862, “PubChem BioAssay data set” (2004)
Activity calls are given as the source filed them.

Legend:
[1] = target: FAD-linked sulfhydryl oxidase ALR (Homo sapiens, UniProt P55789); assay: inhibitors of human ALR sulfhydryl oxidase, dose response, biochemical, H2O2 detection, luminescence, cherry-pick (AID 493248)
[2] = target: T1, Microphthalmia-associated transcription factor (Homo sapiens, UniProt O75030); assay: TRPM1 promoter luciferase signal decrease, dose response, MITF inhibitor project, cell-based, SK-MEL-5, cherry-picked, set 3 (AID 493073); format: functional
T1 sequence (O75030 whole entry): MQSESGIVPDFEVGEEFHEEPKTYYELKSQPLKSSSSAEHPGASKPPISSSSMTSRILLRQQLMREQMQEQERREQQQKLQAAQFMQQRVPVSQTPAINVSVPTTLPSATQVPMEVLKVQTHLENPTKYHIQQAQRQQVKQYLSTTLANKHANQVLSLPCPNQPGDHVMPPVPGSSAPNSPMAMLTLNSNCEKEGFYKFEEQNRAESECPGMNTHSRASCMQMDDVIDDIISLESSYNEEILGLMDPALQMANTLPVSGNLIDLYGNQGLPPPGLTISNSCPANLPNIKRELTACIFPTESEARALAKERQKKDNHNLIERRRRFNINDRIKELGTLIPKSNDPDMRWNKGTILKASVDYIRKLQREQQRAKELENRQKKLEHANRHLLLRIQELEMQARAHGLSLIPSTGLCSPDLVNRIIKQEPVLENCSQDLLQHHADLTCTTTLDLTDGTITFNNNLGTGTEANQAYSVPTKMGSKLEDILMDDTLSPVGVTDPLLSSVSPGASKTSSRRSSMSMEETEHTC

A-375 = assay: A375 melanoma cell viability reduction, dose response, counter-screen for MITF modulator project, cherry-pick samples, set 2 (AID 540335); format: functional, cell-based; conditions: Homo sapiens
[3] = target: T2, Histone-lysine N-methyltransferase NSD2 (Homo sapiens, UniProt O96028); format: biochemical
T2 sequence (O96028 whole entry): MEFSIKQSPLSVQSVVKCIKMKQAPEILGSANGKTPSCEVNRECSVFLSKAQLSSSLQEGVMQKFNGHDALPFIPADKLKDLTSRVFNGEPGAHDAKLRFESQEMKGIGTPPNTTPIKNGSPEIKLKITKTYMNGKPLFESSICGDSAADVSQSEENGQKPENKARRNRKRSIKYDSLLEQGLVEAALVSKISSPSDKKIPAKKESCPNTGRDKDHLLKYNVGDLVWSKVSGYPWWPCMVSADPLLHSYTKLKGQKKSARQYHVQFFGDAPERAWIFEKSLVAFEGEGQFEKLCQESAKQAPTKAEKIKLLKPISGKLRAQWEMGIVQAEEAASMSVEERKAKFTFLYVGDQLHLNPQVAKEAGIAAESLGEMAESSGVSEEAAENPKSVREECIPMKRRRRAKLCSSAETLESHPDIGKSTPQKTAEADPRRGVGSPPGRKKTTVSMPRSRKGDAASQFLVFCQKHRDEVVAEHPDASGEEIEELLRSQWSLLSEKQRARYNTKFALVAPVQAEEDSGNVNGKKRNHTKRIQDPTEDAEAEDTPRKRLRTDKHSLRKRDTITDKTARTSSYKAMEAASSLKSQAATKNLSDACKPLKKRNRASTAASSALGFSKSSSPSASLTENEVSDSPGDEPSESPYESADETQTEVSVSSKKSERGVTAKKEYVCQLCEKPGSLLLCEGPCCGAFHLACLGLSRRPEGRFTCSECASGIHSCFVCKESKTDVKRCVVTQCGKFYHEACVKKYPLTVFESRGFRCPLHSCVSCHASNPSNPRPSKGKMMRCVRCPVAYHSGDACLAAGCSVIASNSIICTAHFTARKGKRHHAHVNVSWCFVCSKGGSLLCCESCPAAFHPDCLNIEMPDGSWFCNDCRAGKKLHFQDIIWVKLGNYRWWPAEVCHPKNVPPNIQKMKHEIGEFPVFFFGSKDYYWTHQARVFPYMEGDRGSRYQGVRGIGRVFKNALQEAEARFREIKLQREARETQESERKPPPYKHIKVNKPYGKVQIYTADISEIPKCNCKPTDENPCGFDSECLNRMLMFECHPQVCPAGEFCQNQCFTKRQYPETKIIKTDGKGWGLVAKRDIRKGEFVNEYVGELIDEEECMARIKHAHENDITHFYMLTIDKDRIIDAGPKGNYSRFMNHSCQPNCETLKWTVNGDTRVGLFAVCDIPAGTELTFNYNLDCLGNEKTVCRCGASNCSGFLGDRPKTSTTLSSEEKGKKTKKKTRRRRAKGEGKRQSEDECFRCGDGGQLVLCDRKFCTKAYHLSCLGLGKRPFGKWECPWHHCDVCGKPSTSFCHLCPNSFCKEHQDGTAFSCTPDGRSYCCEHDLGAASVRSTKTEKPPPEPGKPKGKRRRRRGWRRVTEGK

[4] = target: T3, Heat shock factor protein 1 (Mus musculus, UniProt P38532); assay: inhibition of MG132-induced HSE-luciferase signal, confirmation, cell-based, NIH3T3, luminescence, dose retest (AID 2382); format: functional;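 further: NIH3T3 fibroblasts with HSF1-driven luciferase reporter stressed by proteasome inhibitor MG132; luminescence from HSF1-driven luciferase expression after 8 hours of MG132 stress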
T3 sequence (P38532 whole entry): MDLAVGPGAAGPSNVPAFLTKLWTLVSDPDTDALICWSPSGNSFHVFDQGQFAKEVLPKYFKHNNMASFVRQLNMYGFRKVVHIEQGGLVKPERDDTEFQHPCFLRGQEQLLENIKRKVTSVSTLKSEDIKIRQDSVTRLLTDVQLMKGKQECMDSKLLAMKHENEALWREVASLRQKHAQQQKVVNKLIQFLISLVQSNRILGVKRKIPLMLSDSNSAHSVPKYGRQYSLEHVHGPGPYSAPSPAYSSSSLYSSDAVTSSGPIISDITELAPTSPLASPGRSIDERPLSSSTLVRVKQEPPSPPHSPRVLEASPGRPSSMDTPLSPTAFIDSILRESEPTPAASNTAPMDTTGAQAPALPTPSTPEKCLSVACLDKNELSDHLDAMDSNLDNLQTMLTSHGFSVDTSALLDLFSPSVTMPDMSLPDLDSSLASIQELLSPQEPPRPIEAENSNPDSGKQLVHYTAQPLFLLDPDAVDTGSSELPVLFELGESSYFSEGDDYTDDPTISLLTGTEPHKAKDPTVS

CHO = assay: cytotoxicity in TLR9-MyD88 CHO cells, dose response, cytotoxicity control for TLR9-MyD88 binding inhibitor project, cell-based, luminescence (AID 588339); format: functional, hamster; conditions: Cricetulus griseus;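 further: CHO cells stably coexpressing TLR9 and MyD88 fusions from primary screen; compound exposure lasted 48 hours before viability readout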
Caspase-3 = target: T4, Caspase-3 (Homo sapiens, UniProt P42574); format: functional;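 further: Dose-response selectivity test against caspase-3 for candidate inhibitors of sentrin-specific proteases (SENPs)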
T4 sequence (P42574 whole entry): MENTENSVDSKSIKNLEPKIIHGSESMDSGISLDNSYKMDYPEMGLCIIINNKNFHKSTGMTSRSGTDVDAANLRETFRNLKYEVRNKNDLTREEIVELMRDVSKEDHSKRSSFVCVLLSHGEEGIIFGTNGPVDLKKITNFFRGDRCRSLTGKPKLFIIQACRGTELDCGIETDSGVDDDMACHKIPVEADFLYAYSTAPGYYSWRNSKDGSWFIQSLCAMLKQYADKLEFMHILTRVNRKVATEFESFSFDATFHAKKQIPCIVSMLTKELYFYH

[5] = target: T5, Sentrin-specific protease 7 (Homo sapiens, UniProt Q9BQF6); format: functional;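 further: Luminescence-based dose-response confirmation of ultra-high-throughput screening hits, measuring inhibition of SENP7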
T5 sequence (Q9BQF6 whole entry): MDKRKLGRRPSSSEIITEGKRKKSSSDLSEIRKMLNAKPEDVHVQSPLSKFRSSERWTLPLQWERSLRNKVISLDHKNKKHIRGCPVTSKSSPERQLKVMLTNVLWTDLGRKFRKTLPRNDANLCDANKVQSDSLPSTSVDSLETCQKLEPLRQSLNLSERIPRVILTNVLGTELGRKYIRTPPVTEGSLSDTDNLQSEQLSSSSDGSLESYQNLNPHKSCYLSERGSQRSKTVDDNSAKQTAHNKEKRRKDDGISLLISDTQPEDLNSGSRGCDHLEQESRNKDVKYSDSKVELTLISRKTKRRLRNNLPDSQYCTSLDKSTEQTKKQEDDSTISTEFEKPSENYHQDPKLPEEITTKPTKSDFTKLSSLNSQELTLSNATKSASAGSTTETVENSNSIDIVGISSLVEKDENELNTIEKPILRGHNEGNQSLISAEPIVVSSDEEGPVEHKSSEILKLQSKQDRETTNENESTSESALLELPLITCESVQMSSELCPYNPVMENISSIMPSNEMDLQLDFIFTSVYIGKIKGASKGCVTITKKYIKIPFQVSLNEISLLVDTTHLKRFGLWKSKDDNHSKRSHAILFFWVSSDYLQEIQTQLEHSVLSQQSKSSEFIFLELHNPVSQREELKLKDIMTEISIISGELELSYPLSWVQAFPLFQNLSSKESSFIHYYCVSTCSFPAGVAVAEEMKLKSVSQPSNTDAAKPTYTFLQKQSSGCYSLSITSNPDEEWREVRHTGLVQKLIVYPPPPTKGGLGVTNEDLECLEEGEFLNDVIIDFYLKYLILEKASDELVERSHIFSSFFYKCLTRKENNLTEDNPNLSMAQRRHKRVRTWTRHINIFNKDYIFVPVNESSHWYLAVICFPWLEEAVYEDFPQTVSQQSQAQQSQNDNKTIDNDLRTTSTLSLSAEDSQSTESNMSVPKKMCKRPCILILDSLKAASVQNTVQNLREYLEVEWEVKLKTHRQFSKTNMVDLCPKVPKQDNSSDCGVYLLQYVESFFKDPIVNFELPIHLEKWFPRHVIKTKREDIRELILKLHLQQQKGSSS

[6] = target: T6, Sentrin-specific protease 6 (Homo sapiens, UniProt Q9GZR1); format: functional;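 further: Luminescence-based dose-response confirmatory assay of SENP6 inhibition, following up an ultra-high-throughput screen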
T6 sequence (Q9GZR1 whole entry): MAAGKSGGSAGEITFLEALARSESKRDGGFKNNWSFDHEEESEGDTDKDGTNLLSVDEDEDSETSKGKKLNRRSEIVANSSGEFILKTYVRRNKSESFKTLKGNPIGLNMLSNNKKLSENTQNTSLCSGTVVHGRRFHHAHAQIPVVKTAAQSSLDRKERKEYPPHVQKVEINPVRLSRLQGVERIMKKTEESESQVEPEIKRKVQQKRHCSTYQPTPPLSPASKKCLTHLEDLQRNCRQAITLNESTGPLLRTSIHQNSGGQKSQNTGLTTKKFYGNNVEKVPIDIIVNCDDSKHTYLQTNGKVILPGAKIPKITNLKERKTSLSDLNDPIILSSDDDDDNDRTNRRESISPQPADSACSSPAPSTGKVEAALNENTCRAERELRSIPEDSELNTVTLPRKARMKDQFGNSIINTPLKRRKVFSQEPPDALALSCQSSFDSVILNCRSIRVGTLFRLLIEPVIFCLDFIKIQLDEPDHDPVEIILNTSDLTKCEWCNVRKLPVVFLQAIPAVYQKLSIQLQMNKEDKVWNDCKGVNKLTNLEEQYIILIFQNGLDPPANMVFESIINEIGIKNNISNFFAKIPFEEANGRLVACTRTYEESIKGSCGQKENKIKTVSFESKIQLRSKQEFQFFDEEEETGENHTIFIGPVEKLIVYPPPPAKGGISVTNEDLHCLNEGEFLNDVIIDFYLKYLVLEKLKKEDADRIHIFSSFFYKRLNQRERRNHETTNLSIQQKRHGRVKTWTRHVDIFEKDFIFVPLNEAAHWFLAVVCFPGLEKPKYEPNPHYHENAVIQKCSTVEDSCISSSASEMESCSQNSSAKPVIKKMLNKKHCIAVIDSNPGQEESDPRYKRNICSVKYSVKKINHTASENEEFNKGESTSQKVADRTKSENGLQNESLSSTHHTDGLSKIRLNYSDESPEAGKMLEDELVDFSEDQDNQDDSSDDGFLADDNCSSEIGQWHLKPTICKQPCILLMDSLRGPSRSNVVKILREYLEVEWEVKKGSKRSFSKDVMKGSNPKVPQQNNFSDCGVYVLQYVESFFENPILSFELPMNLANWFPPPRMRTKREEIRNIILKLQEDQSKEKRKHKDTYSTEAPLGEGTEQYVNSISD

[7] = target: T7, Sentrin-specific protease 8 (Homo sapiens, UniProt Q96LD8); format: functional;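 further: luminescence read-out of SENP8 inhibition, dose-response confirmation following an ultra-high-throughput screen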
T7 sequence (Q96LD8 whole entry): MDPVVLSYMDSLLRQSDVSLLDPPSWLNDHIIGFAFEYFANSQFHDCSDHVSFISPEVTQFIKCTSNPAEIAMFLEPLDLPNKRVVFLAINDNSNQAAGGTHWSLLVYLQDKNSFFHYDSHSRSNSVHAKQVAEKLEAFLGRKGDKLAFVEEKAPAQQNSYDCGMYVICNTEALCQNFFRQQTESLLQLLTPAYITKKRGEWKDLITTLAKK

INS1 = assay: protection from cytokine-induced mitochondrial depolarization, dose response, cell-based, INS-1E, JC-1 fluorescence ratio, dry powder (AID 488931); format: functional; conditions: Rattus norvegicus
Beta-galactosidase = Beta-galactosidase (Escherichia coli, UniProt Q8VNN2); assay: PubChem AID 485352; format: functional
Chain of Beta-galactosidase (Q8VNN2 whole entry): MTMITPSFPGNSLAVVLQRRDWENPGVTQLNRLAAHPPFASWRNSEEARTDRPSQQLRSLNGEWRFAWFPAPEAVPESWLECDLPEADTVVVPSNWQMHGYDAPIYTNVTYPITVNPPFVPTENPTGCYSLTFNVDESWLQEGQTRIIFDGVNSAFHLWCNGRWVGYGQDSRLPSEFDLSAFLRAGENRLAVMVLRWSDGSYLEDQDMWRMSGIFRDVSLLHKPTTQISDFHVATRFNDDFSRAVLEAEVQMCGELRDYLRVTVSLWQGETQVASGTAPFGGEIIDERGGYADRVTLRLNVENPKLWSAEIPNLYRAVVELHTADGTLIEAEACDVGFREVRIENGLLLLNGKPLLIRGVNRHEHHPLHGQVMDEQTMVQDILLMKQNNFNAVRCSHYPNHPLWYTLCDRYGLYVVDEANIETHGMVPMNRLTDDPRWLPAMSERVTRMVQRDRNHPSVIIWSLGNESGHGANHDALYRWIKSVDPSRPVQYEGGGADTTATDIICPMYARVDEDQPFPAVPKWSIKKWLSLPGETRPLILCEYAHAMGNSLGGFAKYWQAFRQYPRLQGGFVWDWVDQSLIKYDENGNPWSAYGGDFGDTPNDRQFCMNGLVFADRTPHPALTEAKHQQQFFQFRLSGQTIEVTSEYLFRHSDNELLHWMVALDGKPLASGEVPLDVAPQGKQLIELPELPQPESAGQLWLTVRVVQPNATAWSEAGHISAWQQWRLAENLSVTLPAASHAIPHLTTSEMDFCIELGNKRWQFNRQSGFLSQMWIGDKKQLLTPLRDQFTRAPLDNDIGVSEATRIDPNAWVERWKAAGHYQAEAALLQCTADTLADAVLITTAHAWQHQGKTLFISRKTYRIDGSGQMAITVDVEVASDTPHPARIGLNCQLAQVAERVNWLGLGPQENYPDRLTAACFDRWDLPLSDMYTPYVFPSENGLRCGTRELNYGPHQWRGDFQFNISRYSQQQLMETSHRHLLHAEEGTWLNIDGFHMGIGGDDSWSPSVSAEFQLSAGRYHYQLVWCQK

[8] = target: Type-1 angiotensin II receptor (Homo sapiens, UniProt P30556); assay: AT1 receptor antagonists, dose response, selectivity assay for APJ receptor antagonist project, cell-based, uHTS hits (AID 463214); format: functional;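 further: antagonist potency against angiotensin II stimulated AT1 response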
Chain of Type-1 angiotensin II receptor (P30556 whole entry): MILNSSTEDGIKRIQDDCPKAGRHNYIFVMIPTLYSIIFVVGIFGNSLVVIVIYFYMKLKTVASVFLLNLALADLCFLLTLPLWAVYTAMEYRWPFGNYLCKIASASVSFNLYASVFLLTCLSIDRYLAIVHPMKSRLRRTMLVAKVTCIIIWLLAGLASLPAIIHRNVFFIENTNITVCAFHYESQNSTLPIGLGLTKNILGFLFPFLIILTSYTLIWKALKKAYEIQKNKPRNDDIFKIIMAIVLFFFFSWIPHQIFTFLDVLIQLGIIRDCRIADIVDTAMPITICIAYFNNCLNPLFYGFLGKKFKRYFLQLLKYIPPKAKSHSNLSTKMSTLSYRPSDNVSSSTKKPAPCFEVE

Chain of FAD-linked sulfhydryl oxidase ALR (P55789 whole entry): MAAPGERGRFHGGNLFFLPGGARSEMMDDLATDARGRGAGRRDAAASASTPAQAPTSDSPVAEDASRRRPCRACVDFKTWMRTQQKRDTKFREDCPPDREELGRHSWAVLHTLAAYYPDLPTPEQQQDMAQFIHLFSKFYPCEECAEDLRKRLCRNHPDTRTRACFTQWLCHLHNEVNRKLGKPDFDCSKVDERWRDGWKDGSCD

Cc1cc(C)cc(N2C(=O)NC(=O)/C(=C\C=C\c3ccco3)C2=O)c1
AC50 [1]: 0.501 µM (active) | AC50 [2]: 4.88 µM (active) | AC50 (A-375): 26.7 µM (active) | AC50 [3]: 18.1 µM (active)

CC(C)OC(=O)c1sc2nc(-c3ccccc3)ccc2c1N
EC50 [4]: < 0.16 µM (active) | IC50 (CHO): > 49.8 µM (inactive)

Cc1nn2cc(-c3ncc(C(F)(F)F)cc3Cl)cnc2c1Br
IC50 (Caspase-3): 21.5 µM (active) | IC50 [5]: 19.4 µM (active) | IC50 [6]: 44.8 µM (active) | IC50 [7]: 36.9 µM (active)

COc1ccc(S(=O)(=O)N(C)C[C@@H]2Oc3c(NC(=O)C4CCCCC4)cccc3C(=O)N([C@@H](C)CO)C[C@H]2C)cc1
AC50 (INS1): 137 µM (active)

O=S(=O)(N/N=C\c1ccc(-c2ccccc2Cl)o1)c1ccccc1
EC50 (Beta-galactosidase): > 40 µM (inactive) | IC50 [8]: > 40 µM (not active)

Cc1nnsc1C(=O)NNc1ccc(C(C)(C)C)cc1
EC50 (Beta-galactosidase): > 40 µM (inactive) | IC50 [8]: 2.56 µM (active)
